# According to patent publication US20260308184A1, “SUBSTITUTED PYRIMIDINEDIONE COMPOUNDS, COMPOSITIONS, AND USES THEREOF” (LAKEWOOD AMEDEX, INC., priority 2023, published 2026):
# Legend:
# Test in all cases: Minimum Inhibitory Concentration, broth microdilution
# Type in all cases: cell-based
# Settings in all cases: pH 4-5, Mueller Hinton Broth, 18 to 24 hours
# [1] = test system: Pseudomonas aeruginosa (6234)
# Description: (§1) MIC testing is conducted using the broth (Mueller Hinton Broth) microdilution procedures relevant to each organism group as established by the Clinical and Laboratory Standards Institute (CLSI; 3-7). MIC plates are prepared in accordance with CLSI (3-7). To prepare the test plates, automated liquid handlers are used to conduct serial dilutions and liquid transfers. Automated liquid handlers utilized in this study include the Multidrop 384 (Labsystems, Helsinki, Finland) and the Biomek 2000 (Beckman Coulter, Fullerton CA). The solution is diluted to desired pH using 1 M Citric Acid or 1 M NaOH buffer. A standardized inoculum of each test organism is prepared per CLSI methods (3, 5-7) to equal a 0.5 McFarland standard in the appropriate media followed by an additional 1:20 dilution (1:10 for anaerobes).
# (§2) The plates are then inoculated with 10 μL of the diluted 0.5 McFarland suspension using the Biomek 2000 from low to high drug concentration, resulting in a final concentration of approximately 5×10^5 CFU/mL per well. An un-inoculated plate is incubated for the purpose of assessing solubility of the drug in the test media. The plates are stacked 3 to 4 high, covered with a sterile lid on the top plate, and incubated for 18 to 24 hours according to CLSI. The MIC is recorded as the lowest concentration of respective compound that inhibited visible growth of the organism.
# [2] = test system: Escherichia coli (0102)
# Description: as §1, §2
# [3] = test system: Pseudomonas aeruginosa (6160)
# Description: as §1, §2
# [4] = test system: Escherichia coli (6260)
# Description: as §1, §2
# [5] = test system: Escherichia coli (6098)
# Description: as §1, §2
# [6] = test system: Pseudomonas aeruginosa (0103)
# Description: as §1, §2
smiles,measurement,setting,value
Cc1cn([C@H]2C[C@H](O)[C@@H](COP(=O)(O)OCCCCO)O2)c(=O)[nH]c1=O [R-9],MIC,[1],50 mg/mL
same,MIC,[2],100 mg/mL
same,MIC,[3],100 mg/mL
same,MIC,[4],100 mg/mL
same,MIC,[5],100 mg/mL
same,MIC,[6],100 mg/mL
